For 39 molecules, MIC results are on record in ChEMBL document CHEMBL3792309, “Seeking potent anti-tubercular agents: Design, synthesis, anti-tubercular activity and docking study of various ((triazoles/indole)-piperazin-1-yl/1,4-diazepan-1-yl)benzo[d]isoxazole derivatives” (Bioorg Med Chem Lett, 2016).

Converted amounts (≈) assume the structure as drawn. Some results are limits rather than exact numbers.

The test relates to Mycobacterium tuberculosis. Nature of the test: Antimicrobial activity against p-aminosalicylic acid/isonicotinic acid hydrazide/etambutol/rifampicin resistant Mycobacterium tuberculosis Spec. 210 by classical test tube method. The format is functional.
Usually MIC stands for the least concentration at which growth counts as inhibited. Read a high MIC as weaker potency. With `FC(F)(F)c1cc(-n2cc(CN3CCCN(c4noc5ccccc45)CC3)nn2)ccc1Br`, the lowest concentration to inhibit growth (MIC) was 24 µM (≈ 12.5 µg/mL).
In the case of `O=C(CCCc1c[nH]c2ccccc12)N1CCCN(c2noc3ccccc23)CC1`, the MIC is > 200 µM.
With `O=C(Cc1c[nH]c2ccccc12)N1CCN(c2noc3ccccc23)CC1` the figure was > 200 µM.
As to `COc1cccc(-n2cc(CN3CCCN(c4noc5ccccc45)CC3)nn2)c1`, the MIC is > 200 µM.
Take `O=[N+]([O-])c1ccc(-n2cc(CN3CCN(c4noc5ccccc45)CC3)nn2)cc1`: the MIC was > 200 µM.
As for `COc1cccc(-n2cc(CN3CCN(c4noc5ccccc45)CC3)nn2)c1`, the MIC was 128 µM (≈ 50 µg/mL).
With `C#CCN1CCCN(c2noc3ccccc23)CC1` the figure was 196 µM (≈ 50 µg/mL); with `Brc1ccc(-n2cc(CN3CCN(c4noc5ccccc45)CC3)nn2)cc1`, > 200 µM; with `C#CCN1CCN(c2noc3ccccc23)CC1`, > 200 µM.
With `FC(F)(F)c1cccc(-n2cc(CN3CCN(c4noc5ccccc45)CC3)nn2)c1` the figure was 29.2 µM (≈ 12.5 µg/mL); with `O=C(Cc1c[nH]c2ccccc12)N1CCCN(c2noc3ccccc23)CC1`, 134 µM (≈ 50 µg/mL).
As for `Clc1ccc(-n2cc(CN3CCN(c4noc5cc(Cl)ccc45)CC3)nn2)cc1`, the MIC is > 200 µM.
With `O=C(CCCc1c[nH]c2ccccc12)N1CCN(c2noc3cc(Cl)ccc23)CC1` the figure was > 200 µM.
With `O=C(CCCc1c[nH]c2ccccc12)N1CCN(c2noc3ccccc23)CC1` the figure was > 200 µM; with `COc1ccc(-n2cc(CN3CCCN(c4noc5ccccc45)CC3)nn2)cc1`, > 200 µM; with `O=C(CCc1c[nH]c2ccccc12)N1CCCN(c2noc3ccccc23)CC1`, > 200 µM.
Consider `CCc1ccc(-n2cc(CN3CCCN(c4noc5ccccc45)CC3)nn2)cc1`, for which the MIC was > 200 µM.
In the case of `Fc1ccc(-n2cc(CN3CCN(c4noc5ccccc45)CC3)nn2)cc1` it was 132 µM (≈ 50 µg/mL); in that of `Clc1ccc2c(N3CCN(Cc4cn(-c5ccc(Br)cc5)nn4)CC3)noc2c1`, > 200 µM; in that of `Brc1ccc(-n2cc(CN3CCCN(c4noc5ccccc45)CC3)nn2)cc1`, > 200 µM.
With `FC(F)(F)c1cc(-n2cc(CN3CCN(c4noc5ccccc45)CC3)nn2)ccc1Br` the figure was 6.16 µM (≈ 3.13 µg/mL); with `O=C(Cc1c[nH]c2ccccc12)N1CCN(c2noc3cc(Cl)ccc23)CC1`, 127 µM (≈ 50.1 µg/mL); with `COc1ccc(-n2cc(CN3CCN(c4noc5ccccc45)CC3)nn2)cc1`, > 200 µM.
With `Clc1ccc(-n2cc(CN3CCCN(c4noc5ccccc45)CC3)nn2)cc1` the figure was > 200 µM; with `O=[N+]([O-])c1ccc(-n2cc(CN3CCCN(c4noc5ccccc45)CC3)nn2)cc1`, > 200 µM; with `FC(F)(F)c1cccc(-n2cc(CN3CCCN(c4noc5ccccc45)CC3)nn2)c1`, 28.3 µM (≈ 12.5 µg/mL).
As to `O=[N+]([O-])c1ccc(-n2cc(CN3CCN(c4noc5cc(Cl)ccc45)CC3)nn2)cc1`, the MIC was > 200 µM.
With `Clc1cccc(-n2cc(CN3CCCN(c4noc5ccccc45)CC3)nn2)c1` the figure was 122 µM (≈ 50.1 µg/mL); with `CCc1ccc(-n2cc(CN3CCN(c4noc5cc(Cl)ccc45)CC3)nn2)cc1`, > 200 µM; with `Clc1cccc(-n2cc(CN3CCN(c4noc5ccccc45)CC3)nn2)c1`, 63.4 µM (≈ 25 µg/mL).
As to `COc1ccc(-n2cc(CN3CCN(c4noc5cc(Cl)ccc45)CC3)nn2)cc1`, the MIC turned out to be 118 µM (≈ 50.1 µg/mL).
Consider `O=C(CCc1c[nH]c2ccccc12)N1CCN(c2noc3cc(Cl)ccc23)CC1`, for which the MIC is > 200 µM.
As to `O=C(CCc1c[nH]c2ccccc12)N1CCN(c2noc3ccccc23)CC1`, the MIC was > 200 µM.
In the case of `Clc1ccc(-n2cc(CN3CCN(c4noc5ccccc45)CC3)nn2)cc1` it was > 200 µM; in that of `CCc1ccc(-n2cc(CN3CCN(c4noc5ccccc45)CC3)nn2)cc1`, > 200 µM.
Molecule `Fc1ccc(-n2cc(CN3CCCN(c4noc5ccccc45)CC3)nn2)cc1` gave an MIC of 127 µM (≈ 50 µg/mL).
With `Fc1ccc(-n2cc(CN3CCN(c4noc5cc(Cl)ccc45)CC3)nn2)cc1`, 121 µM (≈ 50.1 µg/mL) was the least that counted as inhibitory (MIC).
In the case of `C#CCN1CCN(c2noc3cc(Cl)ccc23)CC1` it was > 200 µM.
In turn, `NNC(=O)c1ccncc1` [ISONIAZID] displayed an MIC of 91.1 µM (≈ 12.5 µg/mL).
